Results as given in patent US20100183600A1, “RAF Inhibitors and Their Uses” (ARQULE, INC., priority 2008, published 2010).

Key:
p-Erk (A375) = assay: Cell-based phosphorylation assay with electroblotting readout; set-up: species or system human; details: Homo sapiens, A-375; A375 cells, 1 hr
Excerpt: Compounds of the present invention have been screened for their ability to inhibit all isoforms, both wild-type and mutant of RAF kinases (A-RAF, B-RAF and C-RAF) in general, and the mutant B-RAF (V600E) in particular in human cancer cells. A375 is a human melanoma cell line that harbors the most common B-RAF mutation-V600E found in human cancers. The ability of compounds to inhibit RAF kinases in this assay is correlated with the reduction of MEK and ERK phosphorylation, and is therefore a direct indicator of potential in vivo therapeutic activity.
Materials: A375 cells from ATCC were maintained at 37° C., 5% CO2 in DMEM media supplemented with 10% fetal bovine serum, penicillin/streptomycin and fungizone. (Invitrogen)
Methods: Test compounds were dissolved and diluted 1:1000 in DMSO. A375 cells were seeded in six-well tissue culture plates at 5-8×10^5 per well and cultured at 37° C. for 24 h. Cells were incubated with compounds for one hour before being lysed in EPage™ loading buffer (Invitrogen). Lysates were electrophoresed on 8% EPage™ gels and transferred to polyvinylidene difluoride membranes. After incubations with primary and secondary antibodies, the immunostained proteins were detected and quantitated by an Odyssey infrared imager (LI-COR). Analysis was performed by non-linear regression to generate a dose response curve. The calculated IC50 value was the concentration of the test compound that causes a 50% decrease in phospho-MEK and phospho-ERK levels. The primary antibodies used were anti-MEK (Stressgen), anti-ERK (BD Biosciences), anti-phospho-ERK and anti-phospho-MEK (Cell Signaling). The secondary antibodies used were IRDYE800 anti-rabbit, IRDYE 800 anti-mouse (Rockland), AlexaFluor680 anti-mouse and AlexaFluoro680 anti-rabbit (Invitrogen).
A375 cells were treated with 0, 12, 37, 111, 333 and 1000 nM of indicated compounds for 1 hr. The levels of Phospho-ERK and total-ERK were accessed by immunoblotting.

mutant B-RAF = biological target: T1, mutant B-RAF (Homo sapiens, UniProt P15056, V600E); assay: Measurement of RAF activity (MEK-1 phosphorylation); type: biochemical; details: 50 μM ATP, MEK-1 substrate; read-out: Mut-B-Raf IC50
T1 construct: purchased Upstate (Charlottesville, Va.)
T1 sequence (P15056 whole entry V600E): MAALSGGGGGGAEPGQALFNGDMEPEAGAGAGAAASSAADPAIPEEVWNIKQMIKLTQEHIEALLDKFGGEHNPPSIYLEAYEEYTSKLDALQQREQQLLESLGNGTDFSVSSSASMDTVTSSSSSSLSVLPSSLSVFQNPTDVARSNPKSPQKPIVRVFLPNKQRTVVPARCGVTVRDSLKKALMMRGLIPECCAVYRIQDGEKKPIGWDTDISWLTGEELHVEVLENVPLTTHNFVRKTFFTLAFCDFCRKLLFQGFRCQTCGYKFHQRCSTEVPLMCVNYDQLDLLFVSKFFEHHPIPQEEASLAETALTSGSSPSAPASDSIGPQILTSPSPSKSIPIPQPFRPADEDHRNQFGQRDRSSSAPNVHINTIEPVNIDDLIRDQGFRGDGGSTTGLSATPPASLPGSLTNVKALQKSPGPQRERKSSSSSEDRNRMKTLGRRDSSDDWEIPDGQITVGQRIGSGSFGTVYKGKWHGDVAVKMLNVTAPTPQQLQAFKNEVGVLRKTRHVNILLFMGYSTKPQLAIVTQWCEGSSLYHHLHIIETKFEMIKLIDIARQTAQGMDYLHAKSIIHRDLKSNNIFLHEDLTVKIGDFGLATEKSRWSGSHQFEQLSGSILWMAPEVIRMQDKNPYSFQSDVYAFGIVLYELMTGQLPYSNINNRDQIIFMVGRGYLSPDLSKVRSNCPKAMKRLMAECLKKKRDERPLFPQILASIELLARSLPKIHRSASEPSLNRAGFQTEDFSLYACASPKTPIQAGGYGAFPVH
Description: Materials: The RAF kinases and the anti-phospho MEK1/2 antibody were from Upstate (Charlottesville, Va.). The RAF substrate used was full length N-terminal GST-MEK-1, which was expressed in E. coli and purified in-house by HPLC. All proteins were aliquoted and stored at −80° C. Superblock™ in phosphate buffered saline (PBS) blocking reagent was form Pierce (cat. #37515). ATP was from Roche (cat. # 19035722). Alkaline Phosphatase-tagged goat anti-rabbit antibody was from Pierce (cat. # 31340).
Methods: All RAF biochemical assays were performed using an assay buffer containing 20 mM MOPS, 5 mM EGTA, 37.5 mM MgCl2, 1 mM DTT and 50 μM ATP. There was 6.25 ng/well mutant B-RAF and 7.5 ng/well MEK-1 in the final assay conditions. Compounds were serially diluted in assay buffer containing 1% DMSO and 20 μl of test compound at a concentration 3-fold more than the final concentration, and were added to a polypropylene V-well reaction plate. Vehicle control wells received buffer only with DMSO at equivalent concentrations to the test wells. […] These reaction plates were incubated at room temperature for 30 minutes. Capture of MEK-1 was initiated by transferring 50 μl of the reaction mixture to a Nunc Maxisorp™ microplate that is designed for non-specific protein capture. After 30 minute capture of MEK-1 at room temperature, this plate was washed with TBST (6×200 μL/well) to fully terminate the reaction. The plate was then blocked for 1 hour by the addition of 100 μl/well of Superblock™ in phosphate buffered saline (PBS) blocking reagent. Plate was again washed with TBST (6 times with 200 μl/well), followed by the addition of 70 μl/well of Upstate anti-phospho MEK ½ diluted 1:1000 in Pierce Superblock (PBS). After a 60 minute incubation, this plate was washed with TBST (6 times with 200 μl/well), and 70 μl of the secondary antibody (Pierce Alkaline Phosphatase tagged goat anti-rabbit) prepared at 1:4000 in Superblock, were added. After a 45 minute incubation at room temperature, the wells of the microplate were washed with TBST (6 times with 200 μl/well), and thereafter 100 μl/well of Attophos™ fluorescent alkaline phosphatase substrate was added according to the manufacturer's instructions (JBL Scientific). Fluorescence was read on a Perkin Elmer Envision multilabel reader, using the following filters: Excitation Filter: CFP430 nM, Emission Filter: Emission Filter 579 nM.

A375 = assay: Cell growth inhibition assay (MTS); type: cell-based; details: Homo sapiens
Description: (§1) Compounds of the present invention have been tested for activity against a variety of cancer cell lines. The ability of compounds to inhibit cell growth in this assay is correlated with the reduction of dehydrogenase enzyme activity found in metabolically active cells.
(§2) Materials: A large variety of cancer cells from ATCC were maintained at 37° C., 5% CO2 in DMEM media supplemented with 10% fetal bovine serum, penicillin/streptomycin and fungizone (Invitrogen). NCM460 (Incell), a normal colon epithelial cell line, and human mammary epithelial cells (Cambrex) were maintained at 37° C., 5% CO2 in DMEM and HEBM media (Cambrex), respectively.
(§3) Methods: Test compounds were dissolved and diluted to 300× in DMSO then diluted 1:40 in DMEM. Cells were seeded into 96-well tissue culture plates at 1-5×10^3 per well and cultured at 37° C. for 24 h. Cells were incubated with test compounds for 72 hours followed by incubation with tetrazolium compound (3-(4,5-dimethylthiazol-2-yl)-5-(3-carboxymethoxyphenyl)-2-(4-sulfophenyl)-2H-tetrazolium, inner salt; MTS) and the electron coupling reagent, phenazine methosulfate (PMS) for 4 hr. […] The measurement of the absorbance of the formazan was assessed using an ENVISION™ (Perkin Elmer) microplate reader at 492 nm. The calculated IC50 value is the concentration of the test compound that causes a 50% decrease in the absorbance.

RKO = assay: Cell growth inhibition assay (MTS); type: cell-based; details: Homo sapiens
Description: as §1, §2, §3

DLD-1 = assay: Cell growth inhibition assay (MTS); type: cell-based; details: Homo sapiens
Description: as §1, §2, §3

SK-MEL-28 = assay: Cell growth inhibition assay (MTS); type: cell-based; details: Homo sapiens
Description: as §1, §2, §3

WM-266-4 = assay: Cell growth inhibition assay (MTS); type: cell-based; details: Homo sapiens
Description: as §1, §2, §3

| EC50 (p-Erk (A375)) | IC50 (mutant B-RAF) | GI50 (A375; A-375, 72 h, A375, 72 hours) | GI50 (DLD-1; DLD-1, 72 hours) | GI50 (SK-MEL-28; SK-MEL-28, 72 hours) | GI50 (A375; A-375, A375, skin) | GI50 (A375; A-375, A-375, melanoma) | GI50 (DLD-1; DLD-1, colon) | GI50 (SK-MEL-28; SK-MEL-28, malignant melanoma) | SMILES | GI50 (RKO; 72 hours) | GI50 (WM-266-4; WM-266-4, 72 hours) | GI50 (RKO; colon carcinoma) | GI50 (WM-266-4; WM 266-4, WM-266.4, melanoma) |
| --- | --- | --- | --- | --- | --- | --- | --- | --- | --- | --- | --- | --- | --- |
| 93 nM | 8 nM | < 0.4 nM | 12100 nM | 97 nM | – | – | – | – | Cn1ccc(S(=O)(=O)N2CCC[C@@H](Nc3nccc(-c4c(-c5cccc(O)c5)nc5occn45)n3)C2)n1 [Compound 17, (R)-3-(5-(2-(1-(1-methyl-1H-pyrazol-3-ylsulfonyl)piperidin-3-ylamino)pyrimidin-4-yl)imidazo[2,1-b]oxazol-6-yl)phenol] | 95 nM | 0.6 nM | – | – |
| 95 nM | 2920 nM | – | – | – | 300 nM | 280 nM | 19000 nM | 1700 nM | Cn1ccc(S(=O)(=O)N2CCC[C@@H](Nc3nccc(-c4c(-c5cccc(OCOP(=O)(O)O)c5)nc5occn45)n3)C2)n1 [Compound 19, (R)-(3-(5-(2-(1-(1-methyl-1H-pyrazol-3-ylsulfonyl)piperidin-3-ylamino)pyrimidin-4-yl)imidazo[2,1-b]oxazol-6-yl)phenoxy)methyl dihydrogen phosphate] | – | – | 570 nM | 130 nM |
